Measurements as given in patent US10981186B2, “Functional treatment application to particulate materials such as mulch or potting soil” (priority 2014, dated 2021).

Legend:
[1] = Screening test 4: recovery of herbicide active ingredient from mulch (methanol extraction, HPLC); format: physicochemical
Protocol: Screening test 4: Recovery of functional material from particulate material
In this experimental study the herbicide active ingredient was analyzed as the content of functional material (herbicide) as the active ingredient in the particulate material (mulch).
Assay protocol: Ten milliliters of 100% methanol was used to extract the herbicide actives, Pendimethalin and Dimethenamid-P from one gram of mulch. Methanol and mulch were added to a vial and shaken at approximately 180 rpm for 30 minutes on a shaker table. Methanol was filtered from mulch and analyzed for actives via HPLC. Active ingredient recovery was recorded as weight percent. […]
Table 2 and Table 3 show the results of an experiment related to the recovery of herbicide active ingredient from particulate material after providing functional herbicide coating. Table 2 and Table 3 show active ingredient releasing from the mulch at one month exposure compared to non-exposed mulch in warehouse.

[2] = test system: red imported fire ant (Solenopsis invicta) workers; conditions: rate evaluation, 0.5 to 3 X label rate
Source text: Testing with red imported fire ant (Solenopsis invicta, RIFA), Argentine ant (Linepthema humile), and odorous house ant (OHA) workers. Ten inch plastic arenas (inside walls coated with Fluon® to prevent escape) were provided a layer of moistened play sand. A band of mulch was placed across the arena near one side. Between the closest side and the mulch, a micro-centrifuge tube with a universal ant diet was placed. In the larger open area of the arena was placed a water vial and a small weigh boat with either corn grit+soybean oil (RIFA) or 20% honey water (Argentine ant and OHA). Approximately 100 ants were placed in each arena. Mortality was evaluated at 6 or 7 days.

[3] = Black mulch, Warehouse (non-exposed)
[4] = Natural mulch, Warehouse (non-exposed)
[5] = Red mulch, Warehouse (non-exposed)

In the case of `COC[C@H](C)N(C(=O)CCl)c1c(C)csc1C` [dimethenamid-P], the “weight percent of dimethenamid-P” value ([1]; Black mulch, Bottom 1 month) is reported as “<LOD”, the “weight percent of dimethenamid-P” value ([1]; Black mulch, Top 1 month) is reported as 0.00003 weight percent and the “weight percent of dimethenamid-P” value [1, 3] is reported as 0.002 weight percent. For the same molecule, the “weight percent of dimethenamid-P” value ([1]; Natural mulch, Bottom 1 month) was “<LOD”, the “weight percent of dimethenamid-P” value ([1]; Natural mulch, Top 1 month) was 0.00004 weight percent and the “weight percent of dimethenamid-P” value [1, 4] was 0.00203 weight percent. For the same molecule, the “weight percent of dimethenamid-P” value ([1]; Red mulch, Bottom 1 month) was 0.00000 weight percent, the “weight percent of dimethenamid-P” value ([1]; Red mulch, Top 1 month) was 0.00002 weight percent and the “weight percent of dimethenamid-P” value [1, 5] was 0.00233 weight percent.

For `CN/C(=N/CC1CCOC1)N[N+](=O)[O-]` (stereo not shown) [dinotefuran], the “effectiveness over the rates tested (conclusion in words)” value [2] was “effective at all rates tested”.

In the case of `CCC(CC)Nc1c([N+](=O)[O-])cc(C)c(C)c1[N+](=O)[O-]` [pendimethalin], the “weight percent of pendimethalin” value ([1]; Black mulch, Bottom 1 month) is reported as 0.00005 weight percent, the “weight percent of pendimethalin” value ([1]; Black mulch, Top 1 month) is reported as 0.00044 weight percent and the “weight percent of pendimethalin” value [1, 3] is reported as 0.0044 weight percent. The “weight percent of pendimethalin” value ([1]; Natural mulch, Bottom 1 month) was 0.00026 weight percent, the “weight percent of pendimethalin” value ([1]; Natural mulch, Top 1 month) was 0.00079 weight percent and the “weight percent of pendimethalin” value [1, 4] was 0.00674 weight percent. For the same molecule, the “weight percent of pendimethalin” value ([1]; Red mulch, Bottom 1 month) was 0.00026 weight percent, the “weight percent of pendimethalin” value ([1]; Red mulch, Top 1 month) was 0.00054 weight percent and the “weight percent of pendimethalin” value [1, 5] was 0.00302 weight percent.
